# Tests used:
# [1] = system: HIV-1 (CXCR4 using viral population); assay: Clinical trial: HIV-1 viral load after 24 weeks in treatment experienced patients infected with a CXCR4 using viral population; format: in vivo; conditions: for Mean VL reduction: after 24 weeks, change from baseline; for Treatment difference in VL reduction: 97.5% confidence interval printed in next row
# Excerpt: (§1) (b) were infected with a non R5 tropic (CXCR4 using viral population) as determined by Monogram Bioscience Phenosense™ assay (WO 02/-99383; U.S. Pat. No. 5,837,464), or were of indeterminate tropism phenotype;
# (c) had been on a stable antiviral regimen for at least 4 weeks prior to randomisation:
# (e) (i) had at least three months previous antiretroviral experience with at least one agent from three of the four antiretroviral drug classes: NTRIs, NNRTIs, protease inhibitors and fusion inhibitors (i.e. were triple class experienced); or
# (ii) had documented resistance to members of two of the four antiretroviral drug classes (i.e. were dual class resistant).
# (§2) The eligible patients were randomised into three groups based on the drug regimens they received.
# (§3) Group 3: optimised background therapy (as above) plus placebo.
# These patients were distributed evenly among the 3 patient groups.
# (§4) The mean of these measurements was taken to be the baseline measurement for each patient.
# (§5) After 24 weeks of treatment, the endpoints (as discussed below) were measured.
# (a) For each patient, the change from baseline in HIV-1 viral load (on a log[base10]scale) was measured.
# (b) The percentage of patients with fewer than (i) 400 and (ii) 50 HIV-1 RNA copies\mL.
# CD4 cell count = assay: Clinical trial: change from baseline in CD4 cell count (FACS) after 24 weeks; format: in vivo, human; conditions: for Mean change in CD4 count: from baseline
# Excerpt: as §1, §2, §3, §4, §5
# (§6) (d) For each patient, the change from baseline in CD4 and CD8 cell count was measured.
# (§7) Cell count was measured by fluorescence activated cell sorting (FACS), which is a standard technique.
# CD8 cell count = assay: Clinical trial: change from baseline in CD8 cell count (FACS) after 24 weeks; format: in vivo, human; conditions: for Mean change in CD8 count: from baseline
# Procedure: as §1, §2, §3, §5, §6, §7
# [2] = once daily maraviroc + optimised regimen, 24 weeks
# [3] = twice daily maraviroc + optimised regimen, 24 weeks
# [4] = maraviroc both once and twice daily
# [5] = once daily maraviroc + optimised regimen
# [6] = twice daily maraviroc + optimised regimen
substance,measurement,setting,value
"(N-{(1S)-3-[3-isopropyl-5-methyl-4H-1,2,4-triazole-4-yl]-exo-8-azabicyclo[3.2.1]oct-8-yl}-1-phenylpropyl)-4,4-difluorocyclohexanecarboxamide [maraviroc]",viral load change from baseline,"[1]; maraviroc once daily and twice daily groups, 24 weeks",−1.2 log10
same,Mean VL reduction,[1]; once daily maraviroc 150 mg po (300 mg if OBT without PI or delavirdine) + optimised regimen,−0.91 log10 copies/mL
same,Treatment difference in VL reduction,"[1]; once daily maraviroc + optimised regimen vs placebo + optimised regimen, 24 weeks",+0.06 log10 copies/mL
same,>0.5 log10 VL reduction (percentage of patients),[1]; [2],42.1%
same,>1 log10 VL reduction (percentage of patients),[1]; [2],31.6%
same,VL < 50 counts\mL (percentage of patients),[1]; [2],21.0%^
same,VL < 400 counts/mL (percentage of patients),[1]; [2],24.6%
same,Mean VL reduction,[1]; twice daily maraviroc 150 mg po (300 mg if OBT without PI or delavirdine) + optimised regimen,−1.20 log10 copies/mL
same,Treatment difference in VL reduction,"[1]; twice daily maraviroc + optimised regimen vs placebo + optimised regimen, 24 weeks",−0.23 log10 copies/mL
same,>0.5 log10 VL reduction (percentage of patients),[1]; [3],48.1%
same,>1 log10 VL reduction (percentage of patients),[1]; [3],44.2%
same,VL < 50 counts\mL (percentage of patients),[1]; [3],26.9%
same,VL < 400 counts/mL (percentage of patients),[1]; [3],30.8%
same,increase in CD4 cell count as compared to the placebo,CD4 cell count; [4],clinically meaningful (and statistically significant) increase
same,mean CD4 change,CD4 cell count; maraviroc once daily + OBT,+59.6 cells/μL
same,mean CD4 change,CD4 cell count; maraviroc twice daily + OBT,+62.2 cells/μL
same,Mean change in CD4 count,CD4 cell count; [5],+59.6
same,Mean change in CD4 count,CD4 cell count; [6],+62.4
same,increase in CD8 cell count as compared to the placebo,CD8 cell count; [4],clinically meaningful (and statistically significant) increase
same,Mean CD8 cell change,CD8 cell count; maraviroc once daily + OBT,+384.5 cells/μL
same,Mean CD8 cell change,CD8 cell count; maraviroc twice daily + OBT,+338.8 cells/μL
same,Mean change in CD8 count,CD8 cell count; [5],+384.5
same,Mean change in CD8 count,CD8 cell count; [6],+338.8

# Reference: patent publication US20090247570A1, “PHARMACEUTICALS” (Pfizer Inc, priority 2006, published 2009)
